Assay results published in US20230109708A1, “Cellular Uptake” (Axcess (UK) Ltd, priority 2020, published 2023).
Read-outs that look alike come from different tables or passages of the source.

Columns and labels:
[1] = tested on: Caco-2 cells; test: FITC-albumin uptake after chlorpromazine preincubation, fluorescence microscope score (Example 4); format: cell-based; set-up: fluorescence score, uptake of FITC-albumin: key to the marks not given beside the values; details: for effect of preincubation with inhibitor on chenodeoxycholate-stimulated uptake of FITC-albumin: preincubation ten minutes, amiloride and nystatin in similar experiments
[2] = tested on: Caco-2 cells; details: chenodeoxycholate and EDTA alone or in combination at 1 mg/ml; 15 minutes; cells in suspension
[3] = tested on: Caco-2 cells; test: FITC-hGH uptake with chenodeoxycholate, cells in suspension, plate reader (Example 13); format: cell-based; details: FITC-hGH 100 ug/ml; chenodeoxycholate at different concentrations; 15 minutes
Experimental: 1 ml of FITC-hGH alone (concentration 100 ug/ml) or FITC-hGH containing chenodeoxycholate at different concentrations were then added.

[4] = tested on: Caco-2 cells; test: FITC-albumin uptake with chenodeoxycholate and EDTA, DTPA or EGTA, fluorescence microscope score (Example 9); format: cell-based; details: 30 minutes; for fluorescence score, uptake of FITC-albumin: EDTA, DTPA or EGTA 1 mg/ml where present; for enhancement of uptake over and above that seen with chenodeoxycholate alone: agent added at 1 mg/ml to chenodeoxycholate
[5] = tested on: Caco-2 cells
[6] = tested on: Caco-2 cells; test: Uptake of FITC-insulin into Caco-2 cells, confocal microscope (Example 1); format: cell-based; details: for uptake of FITC-insulin into cells (photomicrographs): FITC-insulin 100 ug/ml alone or with sodium chenodeoxycholate 1 or 2 mg/ml, 37° C. half an hour
Experimental: The supernatant was then removed, replaced with 0.5 ml of 4% paraformaldehyde solution, and incubated at room temperature for 15 minutes. The paraformaldehyde was then removed, the wells were washed three times with phosphate-buffered saline, and the coverslips then treated with mounting medium and viewed under a confocal microscope. Images are set out in FIG. 1.

[7] = tested on: Caco-2 cells; details: for enhancement of uptake of the protein (FITC-albumin): chenodeoxycholate 0.5 mg/ml, EDTA or orthophenanthroline 5 mg/ml, alone or in combination
[8] = tested on: Caco-2 cells; set-up: key to the marks not given beside the values; details: twenty minutes, PG 2:1 wt:wt where present
[9] = tested on: IEC6 cell line; details: chenodeoxycholate 0.5 mg/ml; different concentrations of EDTA; 15 minutes
[10] = tested on: Caco-2 cells; test: Uptake of FITC-albumin or FITC-Casein with chenodeoxycholate, fluorescence microscope score (Example 6); format: cell-based; details: FITC-labelled protein 100 ug/ml with chenodeoxycholate
Excerpt: The experiment was repeated on two separate occasions on different days.

[11] = column Concentration of Chenodeoxycholate 0.5 mg/ml, sample alone, no preincubation
[12] = column Concentration of Chenodeoxycholate 1.0 mg/ml, sample alone, no preincubation
[13] = column Concentration of Chenodeoxycholate 1.5 mg/ml, sample alone, no preincubation

## C[C@H](CCC(=O)O)[C@H]1CC[C@H]2[C@@H]3[C@H](O)C[C@@H]4C[C@H](O)CC[C@]4(C)[C@H]3CC[C@]12C [Cheno alone, sodium chenodeoxycholate]
[1]; Cheno 1.0 mg/ml, Chlorpromazine 0 mg/ml
  fluorescence score, uptake of FITC-albumin: +++
[1]; Cheno 1.5 mg/ml, Chlorpromazine 0 mg/ml
  fluorescence score, uptake of FITC-albumin: ++
[2]
  enhancement of uptake of FITC-albumin: too low to enhance uptake
[3]
  uptake of hGH (FITC-hGH) into cells: enhances the uptake of hGH into cells in a dose-dependent manner
[4]; Chenodeoxycholate 0.5 mg/ml
  fluorescence score, uptake of FITC-albumin: +
[4]; Chenodeoxycholate 1 mg/ml
  fluorescence score, uptake of FITC-albumin: ++
[5]; [11]
  fluorescence score, uptake of FITC-albumin: +
[5]; [12]
  fluorescence score, uptake of FITC-albumin: +++
[5]; [13]
  fluorescence score, uptake of FITC-albumin: +++
[6]
  uptake of FITC-insulin into cells (photomicrographs): uptake is enhanced
[6]; FITC-insulin 100 ug/ml, higher concentration of the bile salt (2 mg/ml)
  fluorescent material in vacuoles within the cells: clearly being seen in vacuoles within the cells
[7]; Chenodeoxycholate 0.5 mg/ml, EDTA or orthophenanthroline 5 mg/ml where present, twenty-five minutes
  fluorescence score, uptake of FITC-albumin: +
[7]
  enhancement of uptake of the protein (FITC-albumin): neither chenodeoxycholate nor EDTA were able to enhance uptake
[8]; Concentration of Bile Salt 1.0 mg/ml
  fluorescence score, uptake of FITC-albumin: ++
[8]; Concentration of Bile Salt 1.5 mg/ml
  fluorescence score, uptake of FITC-albumin: +++

## CN(C)CCCN1c2ccccc2Sc2ccc(Cl)cc21 [Chlorpromazine, chlorpromazine]
[1]; 5000 ug/mL
  fluorescence score, uptake of FITC-albumin: ++
[1]
  effect of preincubation with inhibitor on chenodeoxycholate-stimulated uptake of FITC-albumin: concentration-dependent inhibition of uptake

## O=C(O)CN(CCN(CC(=O)O)CC(=O)O)CCN(CC(=O)O)CC(=O)O [DTPA]
[4]
  enhancement of uptake over and above that seen with chenodeoxycholate alone: not

## O=C(O)CN(CCN(CC(=O)O)CC(=O)O)CC(=O)O [EDTA]
[9]
  enhancement of uptake of BSA by chenodeoxycholate in IEC6 cells: augmented by EDTA in a dose-dependent fashion

## O=C(O)CN(CCOCCOCCN(CC(=O)O)CC(=O)O)CC(=O)O [EGTA]
[4]
  enhancement of uptake over and above that seen with chenodeoxycholate alone: not

## C[C@H](CCC(=O)O)[C@H]1CC[C@H]2[C@@H]3[C@@H](O)C[C@@H]4C[C@H](O)CC[C@]4(C)[C@H]3CC[C@]12C [Urso, sodium ursodeoxycholate]
[5]; Urso preincubation 0.1 mg/ml, Chenodeoxycholate 0.5 mg/ml
  fluorescence score, uptake of FITC-albumin: −
[5]; Urso preincubation 0.1 mg/ml, Chenodeoxycholate 1.0 mg/ml
  fluorescence score, uptake of FITC-albumin: ++
[5]; Urso preincubation 0.1 mg/ml, Chenodeoxycholate 1.5 mg/ml
  fluorescence score, uptake of FITC-albumin: ++
[5]; Urso preincubation 0.5 mg/ml, Chenodeoxycholate 0.5 mg/ml
  fluorescence score, uptake of FITC-albumin: −
[5]; Urso preincubation 0.5 mg/ml, Chenodeoxycholate 1.0 mg/ml
  fluorescence score, uptake of FITC-albumin: +
[5]; Urso preincubation 0.5 mg/ml, Chenodeoxycholate 1.5 mg/ml
  fluorescence score, uptake of FITC-albumin: ++
[5]; [11]
  fluorescence score, uptake of FITC-albumin: −
[5]; [12]
  fluorescence score, uptake of FITC-albumin: −
[5]; [13]
  fluorescence score, uptake of FITC-albumin: −
[5]; preincubation ten minutes
  effect of preincubation on chenodeoxycholate-stimulated uptake of FITC-albumin: concentration-dependent inhibition of uptake

## N=C(N)NC(=O)c1nc(Cl)c(N)nc1N [amiloride]
[1]
  effect of preincubation with inhibitor on chenodeoxycholate-stimulated uptake of FITC-albumin: no reduction in uptake

## C[C@@H]1[C@H](O)[C@@H](C)/C=C/C=C/CC/C=C/C=C/C=C/C=C/C(O[C@H]2O[C@H](C)[C@@H](O)[C@H](N)[C@@H]2O)CC2O[C@](O)(CC(O)C(O)CCC(O)CC(O)CC(O)CC(=O)O[C@H]1C)CC(O)C2C(=O)O (some centres unmarked) [nystatin]
[1]
  effect of preincubation with inhibitor on chenodeoxycholate-stimulated uptake of FITC-albumin: no reduction in uptake

## c1cnc2c(c1)ccc1cccnc12 [o-phenanthroline]
[7]
  enhancement of uptake of the protein (FITC-albumin): does not have this effect

## Casein
[10]
  extent of chenodeoxycholate-mediated uptake of the protein: uptake of a similar extent

## insulin: FITC-insulin, fluorescent labelled protein cargo
[6]
  uptake of FITC-insulin into cells (photomicrographs): very little uptake
